Source: publication PMC2649788 (Drug metabolism and disposition: the biological fate of …, 2008)
Positions count from the first letter of the chain named. Values joined by “and” are separate entries in the source; they are usually repeats but may differ in a detail not shown here. Identical values can stand only once.

Experiments:
K262R (2B6*4) [1] = molecular target: T1, K262R (2B6*4) (Homo sapiens, UniProt P20813, K262R); test: 7-MFC O-deethylation inhibition in standard reconstitution system; conditions: for Increase in Ki, K262R compared with CYP2B6dH: 7-MFC O-deethylation
T1 sequence (P20813 with tags, fused parts or gaps K262R limits assumed): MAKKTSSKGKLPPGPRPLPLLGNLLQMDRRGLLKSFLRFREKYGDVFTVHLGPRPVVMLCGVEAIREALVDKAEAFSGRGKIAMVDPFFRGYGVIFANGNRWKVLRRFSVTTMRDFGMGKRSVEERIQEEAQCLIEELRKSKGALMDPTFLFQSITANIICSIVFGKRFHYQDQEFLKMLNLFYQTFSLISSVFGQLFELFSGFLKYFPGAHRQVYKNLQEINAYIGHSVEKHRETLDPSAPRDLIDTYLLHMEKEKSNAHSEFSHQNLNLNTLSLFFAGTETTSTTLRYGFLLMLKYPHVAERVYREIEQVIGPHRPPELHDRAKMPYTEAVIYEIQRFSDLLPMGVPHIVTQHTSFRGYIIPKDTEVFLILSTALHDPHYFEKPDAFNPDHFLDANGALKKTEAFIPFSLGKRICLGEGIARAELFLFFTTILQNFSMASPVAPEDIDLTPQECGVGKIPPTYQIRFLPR

CYP2B6dH [2] = molecular target: T2, CYP2B6dH (Homo sapiens, UniProt P20813); conditions: for Predicted inhibition of efavirenz metabolism (CYP2B6dH): in vivo prediction; for Predicted in vivo % activity (CYP2B6dH): remaining efavirenz metabolism relative to no inhibitor
T2 sequence (P20813 with tags, fused parts or gaps limits assumed): T1 sequence (P20813 with tags, fused parts or gaps K262R limits assumed) with R243K

K262R (2B6*4) [3] = molecular target: T1, K262R (2B6*4); test: Spectral binding; conditions: for ΔAmax (K262R): difference spectra, 1 μM P450; for Higher Ks, K262R compared with CYP2B6dH / ΔAmax, K262R compared with wild-type: spectral binding
Q172H/K262R (2B6*6) [4] = molecular target: T3, Q172H/K262R (2B6*6) (Homo sapiens, UniProt P20813, K262R/Q172H); test: 7-MFC O-deethylation inhibition in standard reconstitution system; conditions: for Increase in Ki, Q172H/K262R compared with CYP2B6dH: 7-MFC O-deethylation; for Ki: Ki (Q172H/K262R), 7-MFC 25, 50, 100, 150 μM, global fit, duplicate
T3 sequence (P20813 with tags, fused parts or gaps Q172H/K262R limits assumed): T1 sequence (P20813 with tags, fused parts or gaps K262R limits assumed) with Q153H

CYP2B6dH [5] = molecular target: T2, CYP2B6dH; test: Spectral binding; conditions: for Type of difference spectrum induced: CYP2B6dH and K262R, peak ~388 nm, trough ~420 nm; for ΔAmax (CYP2B6dH): difference spectra, 1 μM P450
[6] = read-out: Estimated in vivo Cmax; plasma, normal population; used as [I]; ref www.mentalhealth.com, www.medscape.com, www.pharmgkb.org, Burgess and Bodey, 1972, Goodwin and Drew, 2007; cited from earlier work
K262R [7] = conditions: bupropion to hydroxybupropion; ref Bumpus et al., 2005; cited from earlier work
2B6*1/*4 genotype = conditions: individuals with 2B6*1/*4 genotype, single dose; ref Kirchheiner at al., 2003; cited from earlier work
K262R [8] = tested on: K262R; set-up: species or system human
K262R [9] = conditions: in contrast to CYP2B6dH, ref Bumpus et al., 2005, 2006; cited from earlier work
K262R [10] = conditions: ref Bumpus et al., 2006, cited from earlier work
CYP2B6dH [11] = molecular target: T2, CYP2B6dH; conditions: ref Bumpus et al., 2006, cited from earlier work
*1/*4 heterozygotes = conditions: ref Rotger et al., 2007; cited from earlier work
K262R [12] = format: biochemical, human; conditions: type II inhibitors; Supporting table 1
CYP2B6 K262R (2B6*4) = molecular target: T4, CYP2B6 K262R (2B6*4) (Homo sapiens, UniProt P20813, K262R); test: 7-MFC O-deethylation inhibition in standard reconstitution system; conditions: human, pH 7.4
T4 sequence (P20813 with tags, fused parts or gaps K262R limits assumed): T1 sequence (P20813 with tags, fused parts or gaps K262R limits assumed)

CYP2B6dH [13] = molecular target: T2, CYP2B6dH; test: as above; conditions: pH 7.4
Q172H/K262R (2B6*6) [14] = molecular target: T3, Q172H/K262R (2B6*6)
[15] = molecular target: T5, CYP2B6 Q172H/K262R (2B6*6) (Homo sapiens, UniProt P20813, K262R/Q172H); test: 7-MFC O-deethylation inhibition in standard reconstitution system; conditions: human, pH 7.4
T5 sequence (P20813 with tags, fused parts or gaps Q172H/K262R limits assumed): T1 sequence (P20813 with tags, fused parts or gaps K262R limits assumed) with Q153H

CYP2B6dH [16] = molecular target: T2, CYP2B6dH

CN[C@H]1CC[C@@H](c2ccc(Cl)c(Cl)c2)c2ccccc21 [Sertraline, sertraline]
Increase in Ki, K262R compared with CYP2B6dH (K262R (2B6*4) [1]): ~ 6 fold and 6 fold
Predicted inhibition of efavirenz metabolism (CYP2B6dH) (CYP2B6dH [2]): 52%
Kd (K262R (2B6*4) [3]): 2.06 ± 0.61 µM
ΔAmax (K262R) (K262R (2B6*4) [3]): 0.02 ± 0.002
Higher Ks, K262R compared with CYP2B6dH (K262R (2B6*4) [3]): 4 fold
ΔAmax, K262R compared with wild-type (K262R (2B6*4) [3]): 3 fold
Increase in Ki, Q172H/K262R compared with CYP2B6dH (Q172H/K262R (2B6*6) [4]): > 6 fold and > 7 fold
Ki (Q172H/K262R (2B6*6) [4]): 2.2 µM and 2.16 µM
Kd (CYP2B6dH [5]): 0.51 ± 0.16 µM
Type of difference spectrum induced (CYP2B6dH [5]): type I
ΔAmax (CYP2B6dH) (CYP2B6dH [5]): 0.008 ± 0.0005
Cmax [6]: 620 nM

O=C(c1ccc(OCCN2CCCCC2)cc1)c1c(-c2ccc(O)cc2)sc2cc(O)ccc12 [Raloxifene, raloxifene]
Predicted in vivo % activity (CYP2B6dH) (CYP2B6dH [2]): would not alter
Cmax [6]: 3 nM

CC(NC(C)(C)C)C(=O)c1cccc(Cl)c1 (stereo not drawn) [bupropion]
Increased kcat, K262R compared with CYP2B6dH (K262R [7]): > 2 fold
Increased clearance (2B6*1/*4 genotype): 1.3 fold

Clc1ccccc1CN1CCc2sccc2C1 [Ticlopidine, ticlopidine]
Increase in Ki, K262R compared with CYP2B6dH (K262R (2B6*4) [1]): similar
ΔAmax (K262R) (K262R (2B6*4) [3]): 0.025 ± 0.001
Higher Ks, K262R compared with CYP2B6dH (K262R (2B6*4) [3]): No significant changes
ΔAmax, K262R compared with wild-type (K262R (2B6*4) [3]): similar
Type of difference spectrum induced (CYP2B6dH [5]): type I
ΔAmax (CYP2B6dH) (CYP2B6dH [5]): 0.023 ± 0.001
Cmax [6]: 1600 nM
Predicted in vivo activity (K262R) (K262R [8]): 0.47 (13) min^−1

CCC(C)n1ncn(-c2ccc(N3CCN(c4ccc(OCC5COC(Cn6cncn6)(c6ccc(Cl)cc6Cl)O5)cc4)CC3)cc2)c1=O (stereo not drawn) [Itraconazole, itraconazole]
Increase in Ki, K262R compared with CYP2B6dH (K262R (2B6*4) [1]): > 3 fold
Predicted inhibition of efavirenz metabolism (CYP2B6dH) (CYP2B6dH [2]): 43%
Kd (K262R (2B6*4) [3]): 1.73 ± 0.44 µM
ΔAmax (K262R) (K262R (2B6*4) [3]): 0.021 ± 0.002
Higher Ks, K262R compared with CYP2B6dH (K262R (2B6*4) [3]): > 20 fold and ~20 fold
ΔAmax, K262R compared with wild-type (K262R (2B6*4) [3]): similar
Kd (CYP2B6dH [5]): 0.07 ± 0.13 µM
Type of difference spectrum induced (CYP2B6dH [5]): type I
ΔAmax (CYP2B6dH) (CYP2B6dH [5]): 0.022 ± 0.003
Cmax [6]: 1900 nM
Predicted inhibition of efavirenz metabolism (K262R) (K262R [8]; in vivo prediction): 20%

COC(=O)[C@H](c1ccccc1Cl)N1CCc2sccc2C1 [Clopidogrel, clopidogrel]
Increase in Ki, K262R compared with CYP2B6dH (K262R (2B6*4) [1]): 4 fold
Increase in Ki, K262R compared with CYP2B6dH (K262R (2B6*4) [1]; listed as clopidogrel): > 3 fold
Kd (K262R (2B6*4) [3]): 0.33 ± 0.14 µM
ΔAmax (K262R) (K262R (2B6*4) [3]): 0.030 ± 0.002
ΔAmax, K262R compared with wild-type (K262R (2B6*4) [3]): similar
Increase in Ki, Q172H/K262R compared with CYP2B6dH (Q172H/K262R (2B6*6) [4]; listed as clopidogrel): > 6 fold and 6 fold
Ki (Q172H/K262R (2B6*6) [4]): 0.6 µM and 0.59 µM and 0.63 µM
Kd (CYP2B6dH [5]): 0.16 ± 0.11 µM
Type of difference spectrum induced (CYP2B6dH [5]): type I
ΔAmax (CYP2B6dH) (CYP2B6dH [5]): 0.026 ± 0.002
Cmax [6]: 9300 nM
Predicted in vivo activity (K262R) (K262R [8]): 0.27 (7.6) min^−1

Clc1ccccc1C(c1ccccc1)(c1ccccc1)n1ccnc1 [Clotrimazole, clotrimazole]
Increase in Ki, K262R compared with CYP2B6dH (K262R (2B6*4) [1]): similar
Predicted in vivo % activity (CYP2B6dH) (CYP2B6dH [2]): 6%
Cmax [6]: 3700 nM

C#C[C@]1(O)CC[C@H]2[C@@H]3CCc4cc(O)ccc4[C@H]3CC[C@@]21C [17α-ethynylestradiol]
Susceptibility of K262R to mechanism-based inactivation (K262R [9]): refractory

O=C1Nc2ccc(Cl)cc2[C@@](C#CC2CC2)(C(F)(F)F)O1 [efavirenz]
Increased catalytic efficiency, K262R compared with CYP2B6dH (K262R [10]; efavirenz to 8-hydroxyefavirenz): ~ 2 fold
Km (K262R [10]; read-out: Km for efavirenz hydroxylation (K262R)): 15.9 µM
kcat for efavirenz hydroxylation (K262R) (K262R [10]): 0.132 s⁻¹
Km (CYP2B6dH [11]; read-out: Km for efavirenz hydroxylation (CYP2B6dH)): 14.3 µM
kcat for efavirenz hydroxylation (CYP2B6dH) (CYP2B6dH [11]): 0.0717 s⁻¹
Susceptibility of K262R to mechanism-based inactivation (K262R [9]): refractory
Reduced area under plasma concentration (AUC) (*1/*4 heterozygotes): 17%

c1ccc(-c2ccncc2)cc1 [4-(phenyl)pyridine]
Lower IC50, K262R compared with CYP2B6dH (K262R [12]): 10 fold

CC(C)=CCC/C(C)=C/COc1c2ccoc2cc2oc(=O)ccc12 [bergamottin]
Susceptibility of K262R to mechanism-based inactivation (K262R [9]): preserved

COc1ccc2c(C(F)(F)F)cc(=O)oc2c1 [7-MFC, 7-Methoxy-4-(trifluoromethyl) coumarin]
kcat for 7-MFC oxidation (K262R) (K262R (2B6*4) [1]): 0.0817 s⁻¹
Km at 5 min (CYP2B6 K262R (2B6*4)): 5 µM
Km at 5 min (CYP2B6dH [13]): 5.1 µM
Km higher, Q172H/K262R vs CYP2B6dH or K262R (Q172H/K262R (2B6*6) [14]): ~ 10 fold
kcat lower, Q172H/K262R vs CYP2B6dH or K262R (Q172H/K262R (2B6*6) [14]): > 2 fold
Km at 5 min [15]: 49 µM
kcat for 7-MFC oxidation (Q172H/K262R) (Q172H/K262R (2B6*6) [4]): 0.0217 s⁻¹
kcat for 7-MFC oxidation (CYP2B6dH) (CYP2B6dH [16]): 0.0633 s⁻¹

S=P(N1CC1)(N1CC1)N1CC1 [N,N′,N″-triethylenethiophosphoramide]
Susceptibility of K262R to mechanism-based inactivation (K262R [9]): preserved

O=[N+]([O-])c1ccc(Cc2ccncc2)cc1 [4-(4-nitrobenzyl)pyridine]
Lower IC50, K262R compared with CYP2B6dH (K262R [12]): ~ 2 fold and 2 fold

c1ccc(-c2ccc(Cn3ccnc3)cc2)cc1 [1-(4-phenyl)benzylimidazole]
Lower IC50, K262R compared with CYP2B6dH (K262R [12]): ~ 2 fold and 2 fold

O=C1Nc2c(O)cc(Cl)cc2[C@@](C#CC2CC2)(C(F)(F)F)O1 [8-hydroxyefavirenz]
Susceptibility of K262R to mechanism-based inactivation (K262R [9]): preserved
